This passage reports IC50 results from patent US11352353B2, “Heterocyclic compound serving as FGFR4 inhibitor” (Hangzhou Innogate Pharma Co., Ltd., priority 2016, dated 2022).

Molecules are shown by their SMILES. pIC50: −log10 of the molar value. Where only a bound is given, the exact number is not on record here.

Assay [1] has as its target FGFR1 (Homo sapiens, UniProt P11362). In words: FGFR1 kinase activity inhibition (Caliper mobility shift assay). The class given is biochemical. Particulars: FAM-labeled peptide and ATP, 28° C. 30-60 minutes, read-out: FGFR kinase inhibition (IC50, nM) FGFR1. On the procedure: (§1) 1. FGFR1 and FGFR4 Kinase Activity Inhibition Experiments
(§2) The FGFR1, FGFR2, FGFR3 and FGFR4 protein kinase activities were determined using the Caliper mobility shift assay. The compound was dissolved in DMSO and diluted with kinase buffer, and 5 µL of a 5-fold final concentration of the compound (10% DMSO) was added to a 384-well plate. After adding 10 µL of 2.5-fold enzyme (FGFR1 and FGFR4, respectively) solution, incubate for 10 minutes at room temperature, and then add 10 µL of a (FAM-labeled peptide and ATP) solution. Incubate at 28° C. for 30-60 minutes and stop the reaction by adding 25 µL stop solution. Conversion rate data was read on a Caliper EZ Reader II (Caliper Life Sciences). The conversion rate was converted into inhibition rate data (% inhibition rate=(max−sample conversion rate)/(max−min)*100). Wherein max is the conversion of the DMSO control and min is the conversion of the enzyme-free control. Plot the curve with the compound concentration and inhibition rate on the horizontal and vertical coordinates, and fit the curve and calculate the IC50 using XLFit excel add-in version 4.3.1 software.

The test system of assay [2] is Huh7 tumor cells. Put plainly: Inhibition of Huh-7 tumor cell proliferation (CellTiter Glo). The class given is cell-based. As to conditions: Homo sapiens, 72 or 168 hours. The protocol: 2. Compound Inhibition Test on Huh-7 Tumor Cell Proliferation
The Huh7 cell suspension was adjusted to 5×10e4/mL or 2×10e4/mL with DMEM+2 Mm Glutamine+10% FBS medium. A 100 μL cell suspension was added to each well in a 96-well cell culture plate at a final cell concentration of 5000 cells/well (72 hours) or 2000 cells/well (168 hours). The test compound was dissolved in DMSO as a 10 mM stock solution. Compounds at a final concentration of 200× were prepared using stock solutions and DMSO, and 3× serial dilutions were prepared and then diluted 20-fold with each medium. Finally, 10 μL of the corresponding 10-fold solution was added to each well of each cell, and each drug concentration was single-well. The final concentrations of each compound were 3000 nM, 1000 nM, 333.3 nM, 111.1 nM, 37.04 nM, 12.35 nM, 4.12 nM, 1.37 nM, and the final concentration of DMSO per well was 0.5%. Incubate for 72 or 168 hours in a 37° C., 5% CO2 incubator. After 72 or 168 hours of drug treatment, according to the CTG instructions, add 100 µL CellTiter Glo detection reagent per well, pre-melt and equilibrate to room temperature CTG solution, mix with a microplate shaker for 2 minutes, and leave at room temperature for 10 minutes. The chemiluminescence signal value was then measured using an EnSpire plate reader. Cell survival rate was calculated using formula: (Vsample−Vblank)/(Vvehicle control−Vblank)×100%. Vsample is the reading of the drug treatment group, Vvehicle control is the average value of the solvent control group, and Vblank is the average value of the blank control well. The S-type dose-survival curve was plotted and the IC50 values were calculated using the GraphPad Prism 5.0 software using a non-linear regression model.
For orientation: ATP-based viability assays read luminescence as a measure of living cells.

Assay [3] has as its target FGFR4 (Homo sapiens, UniProt P22455). Put plainly: FGFR4 kinase activity inhibition (Caliper mobility shift assay). The format is biochemical. As to conditions: FAM-labeled peptide and ATP, 28° C. 30-60 minutes, read-out: FGFR kinase inhibition (IC50, nM) FGFR4. The protocol:
as §1, §2

Sequence of FGFR4 (P22455 22-802): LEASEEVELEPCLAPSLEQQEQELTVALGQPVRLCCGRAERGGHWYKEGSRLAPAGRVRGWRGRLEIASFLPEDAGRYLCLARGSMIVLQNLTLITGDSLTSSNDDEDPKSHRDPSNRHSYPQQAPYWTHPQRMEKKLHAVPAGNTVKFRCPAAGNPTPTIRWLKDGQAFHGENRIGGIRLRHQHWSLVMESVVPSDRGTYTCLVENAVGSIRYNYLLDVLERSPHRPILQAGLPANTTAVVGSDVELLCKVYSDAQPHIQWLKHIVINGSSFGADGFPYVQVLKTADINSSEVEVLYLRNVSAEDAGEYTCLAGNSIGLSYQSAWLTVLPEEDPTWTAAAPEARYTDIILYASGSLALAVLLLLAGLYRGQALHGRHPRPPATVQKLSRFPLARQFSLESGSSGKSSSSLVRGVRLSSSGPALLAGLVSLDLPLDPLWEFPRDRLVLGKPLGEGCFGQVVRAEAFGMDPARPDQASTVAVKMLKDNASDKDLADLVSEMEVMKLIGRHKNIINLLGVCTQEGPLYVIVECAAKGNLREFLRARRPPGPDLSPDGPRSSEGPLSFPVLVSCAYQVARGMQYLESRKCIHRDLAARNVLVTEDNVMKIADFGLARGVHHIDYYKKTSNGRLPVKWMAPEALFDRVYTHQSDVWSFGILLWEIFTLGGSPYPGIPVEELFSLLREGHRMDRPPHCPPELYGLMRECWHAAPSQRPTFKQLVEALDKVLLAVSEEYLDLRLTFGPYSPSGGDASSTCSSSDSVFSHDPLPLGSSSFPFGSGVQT
Sequence of FGFR1 (P11362 22-822): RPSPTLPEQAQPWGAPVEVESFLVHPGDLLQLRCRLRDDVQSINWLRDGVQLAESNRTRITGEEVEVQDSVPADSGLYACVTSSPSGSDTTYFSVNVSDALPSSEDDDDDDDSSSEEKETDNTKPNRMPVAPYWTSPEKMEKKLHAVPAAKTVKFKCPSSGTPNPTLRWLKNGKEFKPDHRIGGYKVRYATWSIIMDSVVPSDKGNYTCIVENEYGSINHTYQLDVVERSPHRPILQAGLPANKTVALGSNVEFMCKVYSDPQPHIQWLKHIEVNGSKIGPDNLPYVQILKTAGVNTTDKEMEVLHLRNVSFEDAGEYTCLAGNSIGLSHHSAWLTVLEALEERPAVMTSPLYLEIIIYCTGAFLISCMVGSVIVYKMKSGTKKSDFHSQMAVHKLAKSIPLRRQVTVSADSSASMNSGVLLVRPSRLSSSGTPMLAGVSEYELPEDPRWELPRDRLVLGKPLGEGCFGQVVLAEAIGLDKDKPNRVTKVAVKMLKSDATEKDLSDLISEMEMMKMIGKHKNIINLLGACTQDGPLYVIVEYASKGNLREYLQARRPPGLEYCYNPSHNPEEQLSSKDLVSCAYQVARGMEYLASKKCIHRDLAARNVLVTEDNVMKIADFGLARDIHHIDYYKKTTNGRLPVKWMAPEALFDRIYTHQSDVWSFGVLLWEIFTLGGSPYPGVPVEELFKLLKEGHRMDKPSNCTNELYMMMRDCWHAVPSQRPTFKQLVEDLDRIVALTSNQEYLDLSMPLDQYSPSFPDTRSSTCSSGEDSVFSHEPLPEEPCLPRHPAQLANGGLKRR

In the case of `CN1CCN(Cc2cc3c(nc2C=O)N(C(=O)Nc2cc(OC4CC4)c(C#N)cn2)CCC3)C(=O)C1` [Compound 1], in assay [1], the IC50 (commonly the point on the concentration scale where inhibition reaches its midpoint) is greater than 10000 nM. Moreover, the pIC50 (commonly −log10 of the IC50, conventionally taken in molar units) in assay [2] was greater than 7.30.

Regarding `COC1CCC(Oc2cc(NC(=O)N3CCCc4cc(CN5CCN(C)CC5=O)c(C=O)nc43)ncc2C#N)CC1` (stereo not drawn) [Compound 2], the IC50 in assay [1] is greater than 10000 nM. Further, in assay [2], the pIC50 was greater than 7.30.

Consider `CO[C@H]1CC[C@@H](Nc2cc(NC(=O)N3CCCc4cc(CN5CCN(C)CC5=O)c(C=O)nc43)ncc2C#N)CC1` [Compound 3], for which the pIC50 in assay [2] is greater than 7.30.

For `N#Cc1cnc(NC(=O)N2CCCc3cc(CN4CCN(C5CC5)CC4=O)c(C=O)nc32)cc1OC1CC1` [Compound 4], in assay [3], the half-maximal inhibitory concentration (IC50) was less than 20 nM. This compound showed a pIC50 in assay [2] greater than 6.30.

On to `CN1CCCN(Cc2cc3c(nc2C=O)N(C(=O)Nc2cc(OC4CC4)c(C#N)cn2)CCC3)C(=O)C1` [Compound 5], for which the pIC50 in assay [2] is greater than 7.30.

For the compound `N#Cc1cnc(NC(=O)N2CCCc3cc(CN4CC5CCCN5CC4=O)c(C=O)nc32)cc1OC1CC1` (stereo not drawn) [Compound 6], in assay [2], the pIC50 was greater than 6.30.

The compound `COCC1(Oc2cc(NC(=O)N3CCCc4cc(CN5CCN(C)CC5=O)c(C=O)nc43)ncc2C#N)CC1` [Compound 7] gave a pIC50 in assay [2] greater than 6.30.

For `COC1CC(Nc2cc(NC(=O)N3CCCc4cc(CN5CCN(C)CC5=O)c(C=O)nc43)ncc2C#N)C1` (stereo not drawn) [Compound 8], the IC50 in assay [3] is less than 5 nM.

Regarding `COCCNc1cc(NC(=O)N2CCCc3cc(CN4CCCN(C)CC4=O)c(C=O)nc32)ncc1C#N` [Compound 9], the IC50 in assay [3] was less than 5 nM.

In the case of `COCCNc1cc(NC(=O)N2CCCc3cc(CN4CCN5CCCC5C4=O)c(C=O)nc32)ncc1C#N` (stereo not drawn) [Compound 10], in assay [3], the half-inhibitory concentration (IC50) was less than 5 nM.

In the case of `COCCNc1cc(NC(=O)N2CCCc3cc(CN4CCN(C5CN(C)C5)CC4=O)c(C=O)nc32)ncc1C#N` [Compound 11], the half-inhibitory concentration (IC50) in assay [3] is less than 5 nM.

For `CN1CCN(Cc2cc3c(nc2C=O)N(C(=O)Nc2cc(NC4CC4)c(C#N)cn2)CCC3)C(=O)C1` [Compound 12], the IC50 in assay [3] was less than 5 nM.
